Assay results from patent US12054510B2, “2′ and/or 5′ amino-acid ester phosphoramidate 3′-deoxy adenosine derivatives as anti-cancer compounds” (Nucana plc, priority 2014, dated 2024).

How the values were obtained:
[1] = test system: BxPC-3; experiment: Solid tumour and haematological malignancy assay (CellTiterGlo); assay type: cell-based; details: 72 hr
Procedure: (§1) In vitro viability assay were performed to assess the effects of compounds on cell viability in selected cell lines over 72 hr using the CellTiterGlo (CTG, Promega-G7573) assay. The tests were performed in duplicates with treatment of compounds at 9 points, 3.16 folds titration in 96 well plates over ˜72 hr. The compound starting concentrations were 198 mM. Cell viability assay using CellTiterGlo in 96-well plate were performed. Compound treatment 72 hrs, standard growth conditions, duplicates. Compounds were dissolved to 40 mM with thawed […]. Compounds were serially diluted at 3.16 fold in thawed DMSO, and warmed to 37° C. before being dissolved in media (2 μl+200 μl). After compounds were dissolved in media, media containing compounds were warmed to 37° C. in incubator and then compounds in media were added to cell plates (50 μl+50 μl) in duplicates. The compounds' final concentrations were from 198M to 19.9 nM. All compound solubilities were checked and recorded again, then the plates were transferred to CO2 tissue culture incubator immediately and incubated for 3 days. DMSO final concentration is 0.5%.

[2] = test system: HS445; experiment: as above; assay type: cell-based; details: 72 hr
Procedure: as §1

[3] = test system: Jurkat; experiment: as above; assay type: cell-based; details: for MI %: 72 hr; for IC50: Homo sapiens, 72 h, read-out: IC50 (absolute IC50)
Procedure: as §1

[4] = test system: MOLT-4; experiment: as above; assay type: cell-based; details: Homo sapiens, MOLT-4, 72 h; for IC50: read-out: IC50 (absolute IC50); for Emax: read-out: MI %
Procedure: as §1

[5] = test system: SW620; experiment: as above; assay type: cell-based; details: for IC50: Homo sapiens, SW-620, 72 h, read-out: IC50 (absolute IC50); for MI %: SW620, 72 hr
Procedure: as §1

[6] = test system: Z138; experiment: as above; assay type: cell-based; details: 72 hr
Procedure: as §1

[7] = test system: CCRFCEM; experiment: as above; assay type: cell-based; details: Homo sapiens, CCRF-CEM, 72 h
Procedure: as §1, with “The tests were performed in duplicates with treatment of compounds at 9 points, 3.16 folds titration in 96 well plates over ˜72 hr. The compound starting concentrations were 198 mM.” left out, “Compounds were serially diluted at 3.16 fold in thawed DMSO, and warmed to 37° C. before being dissolved in media (2 μl+200 μl).” left out, “The compounds' final concentrations were from 198M to 19.9 nM.” left out

[8] = test system: HEL92.1.7; experiment: as above; assay type: cell-based; details: Homo sapiens, HEL 92.1.7, 72 h, read-out: MI %
Procedure: as §1, with “The tests were performed in duplicates with treatment of compounds at 9 points, 3.16 folds titration in 96 well plates over ˜72 hr. The compound starting concentrations were 198 mM.” left out, “Compounds were serially diluted at 3.16 fold in thawed DMSO, and warmed to 37° C. before being dissolved in media (2 μl+200 μl).” left out, “The compounds' final concentrations were from 198M to 19.9 nM.” left out

[9] = test system: HT29; experiment: as above; assay type: cell-based; details: Homo sapiens, HT-29, 72 h; for IC50: read-out: IC50 (absolute IC50); for Emax: read-out: MI %
Procedure: as §1, with “The tests were performed in duplicates with treatment of compounds at 9 points, 3.16 folds titration in 96 well plates over ˜72 hr. The compound starting concentrations were 198 mM.” left out, “Compounds were serially diluted at 3.16 fold in thawed DMSO, and warmed to 37° C. before being dissolved in media (2 μl+200 μl).” left out, “The compounds' final concentrations were from 198M to 19.9 nM.” left out

[10] = test system: K562; experiment: as above; assay type: cell-based; details: Homo sapiens, K562, 72 h; for Emax: read-out: MI %; for IC50: read-out: IC50 (absolute IC50)
Procedure: as §1, with “The tests were performed in duplicates with treatment of compounds at 9 points, 3.16 folds titration in 96 well plates over ˜72 hr. The compound starting concentrations were 198 mM.” left out, “Compounds were serially diluted at 3.16 fold in thawed DMSO, and warmed to 37° C. before being dissolved in media (2 μl+200 μl).” left out, “The compounds' final concentrations were from 198M to 19.9 nM.” left out

[11] = test system: RPMI-8226; experiment: as above; assay type: cell-based, Human; details: for MI %: RPMI-8226, 72 hr
Procedure: as §1

[12] = test system: HL-60; experiment: ATP ViaLight plus cell viability assay; assay type: cell-based, Human; details: for (FD) fold difference compared to Cordycepin = Cordycepin IC50/ProTide IC50: HL-60
Procedure: (§2) Certain compounds of the invention were subjected to further studies to test the cytotoxic activity of certain compounds of the invention and also to measure their activity against 4 haematological cancer cell lines • TdT positive CEM (Human ALL) • TdT negative K562 (Human CML) • TdT negative H1-60 (Human ANLL) • RL (CRL-2261) non-HD lymphoma • The concentrations of the active metabolite dATP (Cordycepin triphosphate) in these cell lines was also measured. • The cytotoxic activity and the intracellular 3′-dATP concentrations were also studied in the presence of hENT1, Adenosine Kinase (AK) and Adenosine Deaminase pharmacological inhibitors in CEM and RL cancer cell lines. Said inhibitors that mimic known cancer resistance mechanisms. Methods Cell Culture
(§3) HL-60, K562, CCRF-CEM and RL cell lines were cultured in RPMI-1640 medium (Sigma Aldrich, UK), which were supplemented with 10% Fetal Bovine Serum (FBS) (PAA Laboratories), 1% amphotericin B (5.5 ml) and 1% penicillin/streptomycin (5.5 ml) (PAA Laboratories) and grown in flasks at 37° C. incubator with 5% CO2.
(§4) The amount of ATP was used as a measurement of cell number and cell viability. ATP ViaLight™ plus assay kit (Lonza, USA: Product No. LT07-121) to detect ATP in cells treated in luminescence compatible 96 well plates (initial concentration of cells was 1×10^4 cells/well) with cordycepin and ProTides at concentrations of: 0, 0.1, 0.5, 1, 5 and 10 μM, followed by incubation for 72 hours at 37° C. incubator with 5% CO2. For inhibitor studies, 10 μM of NBTI or 1 μM EHNA or A-134974 was added and left for 5 minutes before adding the drugs (see section 5 for inhibitor details).
(§5) After incubation, 50 μl of cell lysis reagent was added to the 96 well plates to release the intracellular ATP, followed by 100 μl of ATP monitoring reagent (AMR). The luminescent values of each well were determined using FLUOstar OPTIMA microplate reader (BMG Labtech) which convert ATP into light by using luciferase enzyme. Therefore, the amount of luminescence produced was directly proportional to the amount of ATP.
(§6) The dose-response curves of cytotoxicity of the drugs was determined using non-linear regression analysis of percentage cell viability versus concentration and EC50 values were obtained. The intracellular assay was conducted in five replicates for each condition. Intracellular assay was determined using paired t test (two-tailed) analysis of 3′ ATP/ATP concentration and p-values were obtained. For all the analysis, Prism Software program (GraphPad Software) was used and Microsoft Powerpoint® 2013 was used to plot the results.

[13] = test system: K562; experiment: ATP ViaLight plus cell viability assay; assay type: cell-based, Human; details: for (FD) fold difference compared to Cordycepin = Cordycepin IC50/ProTide IC50: K562
Procedure: as §2, §3, §4, §5, §6

[14] = test system: RL (CRL-2261); experiment: ATP ViaLight plus cell viability assay; assay type: cell-based
Procedure: as §2, §3, §4, §5
Cell lines were treated in the same way as described above but before treatment with drugs, a number of inhibitors were added: • 1) Nitrobenzylthioinosine (NBTI) (Sigma-Aldrich, St. Louis, MO, product # N2255) blocks nucleoside transporters • 2) EHNA hydrochloride (Sigma-Aldrich, St. Louis, MO, product # E114) blocks adenosine deaminase • 3) Adenosine kinase inhibitor A-134974 dihydrochloride hydrate (Sigma-Aldrich, St. Louis, MO, product # A2846): blocks adenosine kinase
as §6

[15] = test system: THP-1; experiment: Solid tumour and haematological malignancy assay (CellTiterGlo); assay type: cell-based; details: 72 hr
Procedure: as §1

Structure (SMILES)	MI % [1] [%]	MI % [2] [%]	MI % [3] [%]	IC50 [3] [nM]	IC50 [4] [nM]	Emax [4] [%]	IC50 [5] [µM]	MI % [6] [%]	Emax [8] [%]	IC50 [9] [µM]	Emax [9] [%]	Emax [10] [%]	MI % [11] [%]	(FD) fold difference compared to Cordycepin = Cordycepin IC50/ProTide IC50 [12]	(FD) fold difference compared to Cordycepin = Cordycepin IC50/ProTide IC50 [13]	(FD) fold difference compared to Cordycepin = Cordycepin IC50/ProTide IC50 [14]	MI % [5] [%]	MI % [15] [%]	IC50 [10] [µM]	(FD) fold difference compared to control ([14]; AK)	also measured
CCOC(=O)CCc1ccccc1OP(=O)(N[C@@H](C)C(=O)OCc1ccccc1)OC[C@@H]1C[C@@H](O)[C@H](n2cnc3c(N)ncnc32)O1 (stereo partly drawn) [F, (2S)-benzyl 2-(((((2S,4R,5R)-5-(6-amino-9H-purin-9-yl)-4-hydroxytetrahydrofuran-2-yl)methoxy)(2-(3-ethoxy-3-oxopropyl)phenoxy)phosphoryl)amino)propanoate]	78	92	100	100 to 5000	100 to 5000	98	15 to 100	76	99	15 to 100	89	93	106	1	2	7					Emax ([7]; read-out: MI %): 101%; IC50 ([11]; Homo sapiens, RPMI-8226, 72 h, read-out: IC50 (absolute IC50)): 15 to 100 µM; IC50 ([12]; Homo sapiens, HL-60, 72 h): 8.3 µM; IC50 ([13]; Homo sapiens, K562, 72 h): 6.3 µM
COC(=O)C(C)(C)NP(=O)(OC[C@@H]1C[C@@H](O)[C@H](n2cnc3c(N)ncnc32)O1)Oc1cccc2ccccc12 (stereo partly drawn) [E, Methyl 2-(((((2S,4R,5R)-5-(6-amino-9H-purin-9-yl)-4-hydroxytetrahydrofuran-2-yl)-methoxy)(naphthalen-1-yloxy)phosphoryl)amino)-2-methylpropanoate]	71	85	95			98	15 to 100	93	101	15 to 100	76		89	1	1	2	74	43	5 to 15	1	(FD) fold difference compared to control ([14]; EHNA): 1; (FD) fold difference compared to control ([14]; NBTI): 1
C[C@H](NP(=O)(OC[C@@H]1C[C@@H](O)[C@H](n2cnc3c(N)ncnc32)O1)Oc1cccc2ccccc12)C(=O)OCc1ccccc1 (stereo partly drawn) [B, (2S)-benzyl 2-(((((2S,4R,5R)-5-(6-amino-9H-purin-9-yl)-4-hydroxytetrahydrofuran-2-yl)methoxy)(naphthalen-1-yloxy)phosphoryl)amino)propanoate]	90	96	100	100 to 5000	100 to 5000	98	5 to 15		98	5 to 15	98	99	102	4	52	61	93	99	0.1 to 5	1	IC50 ([7]; read-out: IC50 (absolute IC50)): 100 to 5000 nM; (FD) fold difference compared to control ([14]; EHNA): 2; (FD) fold difference compared to control ([14]; NBTI): 1
